{
  "source": "patent US9206130B2",
  "about": "“Quinoline derivatives as AXL kinase inhibitors” (Max-Planck-Gesellschaft zur Förderung der Wissenschaften …, priority 2008, dated 2015)",
  "key": {"[1]": {"biological_target": "T1, wild type AXL (wtAXL) receptor tyrosine kinase (Homo sapiens, UniProt P30530)", "T1 construct": "WtAXL cDNA was cloned into vector pLXSN(ESK) and transfected into Phoenix E packaging cells; expressed in transfected cells; host or cells: NIH3T3 N7 mouse fibroblasts, retrovirally infected (clone 22)", "T1 sequence (P30530 26-894)": "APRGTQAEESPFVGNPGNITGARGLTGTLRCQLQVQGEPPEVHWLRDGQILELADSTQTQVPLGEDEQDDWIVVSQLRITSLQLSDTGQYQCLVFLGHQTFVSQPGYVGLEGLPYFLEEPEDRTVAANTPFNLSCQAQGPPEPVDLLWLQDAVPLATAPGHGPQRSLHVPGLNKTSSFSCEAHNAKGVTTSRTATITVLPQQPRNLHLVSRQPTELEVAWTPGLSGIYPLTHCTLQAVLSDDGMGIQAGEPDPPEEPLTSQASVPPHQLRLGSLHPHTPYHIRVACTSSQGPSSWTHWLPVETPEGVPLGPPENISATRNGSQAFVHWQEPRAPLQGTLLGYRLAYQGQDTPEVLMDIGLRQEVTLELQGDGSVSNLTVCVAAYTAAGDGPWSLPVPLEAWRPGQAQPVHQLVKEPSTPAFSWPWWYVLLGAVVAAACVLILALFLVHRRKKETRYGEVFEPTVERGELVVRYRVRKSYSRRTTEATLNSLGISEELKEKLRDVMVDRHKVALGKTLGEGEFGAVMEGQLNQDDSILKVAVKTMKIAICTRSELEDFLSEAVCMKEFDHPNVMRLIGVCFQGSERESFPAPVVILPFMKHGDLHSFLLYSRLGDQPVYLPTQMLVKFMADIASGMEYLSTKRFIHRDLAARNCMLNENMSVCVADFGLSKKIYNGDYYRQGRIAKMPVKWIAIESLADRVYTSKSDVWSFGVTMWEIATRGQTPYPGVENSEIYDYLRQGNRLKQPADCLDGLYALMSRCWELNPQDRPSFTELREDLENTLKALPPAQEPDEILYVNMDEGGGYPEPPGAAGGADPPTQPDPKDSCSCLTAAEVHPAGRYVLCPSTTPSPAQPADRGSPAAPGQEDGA", "assay": "NIH-3T3-AXL cellular tyrosine kinase assay (inhibition of AXL phosphorylation)", "format": "cell-based", "settings": "AXL phosphorylation in NIH-3T3-AXL (clone 22) cells, serum-depleted, 2 h with compound, immunoprecipitation / anti-phosphotyrosine blot", "how_it_was_run": "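NIH3T3 clones stably expressing human wtAXL (puromycin-selected) were exposed to serially diluted compounds for 2 h. AXL was immunoprecipitated from lysates with anti-AXL antibody, and phosphorylation detected by anti-phosphotyrosine (4G10) western blot with ECL.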"}},
  "data": [
    {"smiles": "COc1cc2nccc(Oc3ccc(NS(=O)(=O)c4cccc(-c5ccccc5)c4)cc3OC)c2cc1OC", "note": "[Example A138, Biphenyl-3-sulfonic acid [4-(6,7-dimethoxy-quinolin-4-yloxy)-3-methoxy-phenyl]-amide]", "values": [
      {"measurement": "IC50", "setting": "[1]", "result": "> 10", "unit": "µM"},
      {"measurement": "melting point", "result": "108 to 110", "unit": "°C"}
    ]},
    {"smiles": "COc1cc2nccc(Oc3ccc(NS(=O)(=O)c4cc(F)ccc4F)cc3OC)c2cc1OC", "note": "[Example A139, N-[4-(6,7-Dimethoxy-quinolin-4-yloxy)-3-methoxy-phenyl]-2,5-difluoro-benzenesulfonamide]", "values": [
      {"measurement": "IC50", "setting": "[1]", "result": 2.2, "unit": "µM"},
      {"measurement": "melting point", "result": "222 to 224", "unit": "°C"}
    ]},
    {"smiles": "COc1cc2nccc(Oc3ccc(NS(=O)(=O)c4cccc5ccccc45)cc3OC)c2cc1OC", "note": "[Example A140, Naphthalene-1-sulfonic acid [4-(6,7-dimethoxy-quinolin-4-yloxy)-3-methoxy-phenyl]-amide]", "values": [
      {"measurement": "IC50", "setting": "[1]", "result": "> 10", "unit": "µM"},
      {"measurement": "melting point", "result": "124 to 126", "unit": "°C"}
    ]},
    {"smiles": "COc1cc2nccc(Oc3ccc(NS(=O)(=O)c4ccc(-c5ccccc5)cc4)cc3OC)c2cc1OC", "note": "[Example A142, Biphenyl-4-sulfonic acid [4-(6,7-dimethoxy-quinolin-4-yloxy)-3-methoxy-phenyl]-amide]", "values": [
      {"measurement": "IC50", "setting": "[1]", "result": "> 10", "unit": "µM"},
      {"measurement": "melting point", "result": "128 to 131", "unit": "°C"}
    ]},
    {"smiles": "COc1cc2nccc(Oc3ccc(NS(=O)(=O)c4cccc(-c5ncccn5)c4)cc3OC)c2cc1OC", "note": "[Example A143, N-[4-(6,7-Dimethoxy-quinolin-4-yloxy)-3-methoxy-phenyl]-3-pyrimidin-2-yl-benzenesulfonamide]", "values": [
      {"measurement": "IC50", "setting": "[1]", "result": "> 10", "unit": "µM"},
      {"measurement": "melting point", "result": "135 to 137", "unit": "°C"}
    ]},
    {"smiles": "COc1cc2nccc(Oc3ccc(NS(=O)(=O)c4csc5ccccc45)cc3OC)c2cc1OC", "note": "[Example A144, Benzo[b]thiophene-3-sulfonic acid [4-(6,7-dimethoxy-quinolin-4-yloxy)-3-methoxy-phenyl]-amide]", "values": [
      {"measurement": "IC50", "setting": "[1]", "result": "> 10", "unit": "µM"},
      {"measurement": "melting point", "result": "144 to 146", "unit": "°C"}
    ]},
    {"smiles": "COc1cc2nccc(Oc3ccc(NS(=O)(=O)c4ccc5c(c4)CC(=O)N5C)cc3OC)c2cc1OC", "note": "[Example A145, 1-Methyl-2-oxo-2,3-dihydro-1H-indole-5-sulfonic acid [4-(6,7-dimethoxy-quinolin-4-yloxy)-3-methoxy-phenyl]-amide]", "values": [
      {"measurement": "IC50", "setting": "[1]", "result": "> 10", "unit": "µM"},
      {"measurement": "melting point", "result": "150 to 152", "unit": "°C"}
    ]},
    {"smiles": "COc1cc2nccc(Oc3ccc(NS(=O)(=O)c4ccc(Br)cc4OC(F)(F)F)cc3F)c2cc1OC", "note": "[Example A146, 4-Bromo-N-[4-(6,7-dimethoxy-quinolin-4-yloxy)-3-fluoro-phenyl]-2-trifluoromethoxy-benzenesulfonamide]", "values": [
      {"measurement": "IC50", "setting": "[1]", "result": 0.89, "unit": "µM"},
      {"measurement": "melting point", "result": "226 to 228", "unit": "°C"}
    ]},
    {"smiles": "COc1cc2nccc(Oc3ccc(NS(=O)(=O)c4ccc(Br)cc4OC(F)(F)F)c(F)c3)c2cc1OC", "note": "[Example A147, 4-Bromo-N-[4-(6,7-dimethoxy-quinolin-4-yloxy)-2-fluoro-phenyl]-2-trifluoromethoxy-benzenesulfonamide]", "values": [
      {"measurement": "IC50", "setting": "[1]", "result": "> 3", "unit": "µM"},
      {"measurement": "melting point", "result": "227 to 229", "unit": "°C"}
    ]},
    {"smiles": "COc1cc2nccc(Oc3ccc(NS(=O)(=O)c4ccc(Br)cc4OC(F)(F)F)cc3OC)c2cc1OC", "note": "[Example A148, 4-Bromo-N-[4-(6,7-dimethoxy-quinolin-4-yloxy)-3-methoxy-phenyl]-2-trifluoromethoxy-benzenesulfonamide]", "values": [
      {"measurement": "IC50", "setting": "[1]", "result": "> 10", "unit": "µM"},
      {"measurement": "melting point", "result": "176 to 177", "unit": "°C"}
    ]},
    {"smiles": "COc1cc2nccc(Oc3ccc(NS(=O)(=O)c4ccc(Br)cc4OC(F)(F)F)cc3)c2cc1OC", "note": "[Example A149, 4-Bromo-N-[4-(6,7-dimethoxy-quinolin-4-yloxy)-phenyl]-2-trifluoromethoxy-benzenesulfonamide]", "values": [
      {"measurement": "IC50", "setting": "[1]", "result": "> 3", "unit": "µM"},
      {"measurement": "melting point", "result": "237 to 239", "unit": "°C"}
    ]},
    {"smiles": "COc1cc2nccc(Oc3ccc(NS(=O)(=O)c4ccc(OC)c5ccccc45)c(C)c3)c2cc1OC", "note": "[Example A150, 4-Methoxy-naphthalene-1-sulfonic acid [4-(6,7-dimethoxy-quinolin-4-yloxy)-2-methyl-phenyl]-amide]", "values": [
      {"measurement": "IC50", "setting": "[1]", "result": "> 10", "unit": "µM"},
      {"measurement": "melting point", "result": "216 to 217", "unit": "°C"}
    ]}
  ]
}
